# Assay results published in patent US6869956B2, “Methods of treating inflammatory and immune diseases using inhibitors of IκB kinase (IKK)” (Bristol-Myers Squibb Company, priority 2000, dated 2005).
# Structures can show the parent of a compound that is named as a salt.
# Columns and labels:
# [1] = molecular target: T1, recombinantly expressed IKK-1 (Homo sapiens, UniProt O15111); test: IKK-1 enzyme assay (33P-ATP / IκB-α phosphorylation); format: biochemical; settings: 33P-labeled ATP and IκB-α as substrates
# T1 construct: made in house
# T1 sequence (O15111 1-745): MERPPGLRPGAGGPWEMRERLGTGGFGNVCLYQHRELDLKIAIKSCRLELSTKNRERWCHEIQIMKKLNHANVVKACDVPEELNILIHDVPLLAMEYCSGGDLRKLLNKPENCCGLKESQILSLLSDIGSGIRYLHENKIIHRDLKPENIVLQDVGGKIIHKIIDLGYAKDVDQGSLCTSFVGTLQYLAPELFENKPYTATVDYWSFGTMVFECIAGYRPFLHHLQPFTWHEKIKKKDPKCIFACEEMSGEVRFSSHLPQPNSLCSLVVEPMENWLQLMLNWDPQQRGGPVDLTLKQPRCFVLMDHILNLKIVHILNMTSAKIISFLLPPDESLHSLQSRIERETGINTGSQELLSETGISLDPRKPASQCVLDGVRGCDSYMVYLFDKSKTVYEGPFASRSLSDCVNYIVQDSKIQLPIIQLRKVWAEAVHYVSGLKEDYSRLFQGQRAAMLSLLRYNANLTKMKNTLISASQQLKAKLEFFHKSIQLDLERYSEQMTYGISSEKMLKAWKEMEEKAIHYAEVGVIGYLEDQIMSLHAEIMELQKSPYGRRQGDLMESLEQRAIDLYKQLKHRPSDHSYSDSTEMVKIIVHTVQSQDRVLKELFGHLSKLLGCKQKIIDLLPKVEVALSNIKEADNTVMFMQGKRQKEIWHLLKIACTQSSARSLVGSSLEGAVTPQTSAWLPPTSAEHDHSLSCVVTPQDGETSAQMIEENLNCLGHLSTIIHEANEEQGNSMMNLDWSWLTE
# Procedure: In this assay, test compound was added to a solution of 0.5 mM IκB-α in 40 mM Tris-HCl, pH 8, containing 4 mM MgCl2, 1 mM dithiothreitol, and 2 mM ^33P-labeled ATP. IKK enzyme (either the multisubunit complex from HeLa cells, recombinantly expressed IKK-1, or recombinantly expressed IKK-2) was then added to initiate the reaction. The multisubunit complex was isolated according to the procedure of Lee et al. [(1997) Cell 88:213-222] or Mercurio et al. [(1997) 278:860-866]. The recombinant IKK-1 and IKK-2 were expressed using the procedure of Burke et al. [(1999) J. Biol. Chem. 274:36146-36152]. After incubating for 10 minutes at 30° C., the reaction was quenched by the addition of EDTA to a final concentration of 30 mM. In order to separate the phosphorylated IκB-α (Santa Cruz Biotechnology; Santa Cruz, Calif.) product from unreacted ATP, sodium dodecylsulfate polyacrylamide gel electrophoresis (SDS-PAGE) was performed. Phosphoimager analysis of the amount of ^33P incorporation into IκB-α was executed using a Molecular Dynamics 445 Phosphoimager, and the inhibition of IKK activity by the test compound was calculated from control samples containing no inhibitor.
SMILES,melting point,IC50 [1] [nM]
"Cc1cnc2c(NCCO)nc3cc4ccccc4cc3n12 [Example 18, 1-methyl-4-(2-hydroxyethylamino)benzo[g]imidazo[1,2-a]quinoxaline]",186 to 188 °C,
"CNc1nc2cc3ccccc3cc2c2c(C)cnn12 [Example 14, 1-methyl-4-methylaminobenzo[g]pyrazolo[1,5-c]quinazoline]",,670
"CNCCNc1nc2cc3ccccc3cc2n2c(C)cnc12 [Example 13, 1-methyl-4-(2-N-methylaminoethylamino)benzo[g]imidazo[1,2-a]quinoxaline Hydrochloride]",,350
"CNc1nc2cc3ccccc3cc2n2c(C)cnc12 [Example 12, 1-methyl-4-methylaminobenzo[g]imidazo[1,2-a]quinoxaline]",201 to 202 °C,230
"Cc1cnc2c(NCCN3CCCCC3)nc3cc4ccccc4cc3n12 [Example 19, 1-methyl-4-(2-piperidin-1-yl-ethylamino)benzo[g]imidazo[1,2-a]quinoxaline]",170 to 172 °C,1700
Cn1cnc2c(NCCN)nc3cc4ccccc4cc3c21 [Example 17],,1000
"CNc1nc2cc3ccccc3cc2c2c1ncn2C [Example 16, 1-methyl-4-methylaminobenzo(g)imidazo(4,5-c)quinoline]",,800
"CNCCNc1nc2cc3ccccc3cc2n2c(C)cnc12 (as salt: hydrochloride) [Example 13, 1-methyl-4-(2-N-methylaminoethylamino)benzo[g]imidazo[1,2-a]quinoxaline Hydrochloride]",265 to 275 °C (dec.),
